Laboratory results taken from article PMC5513037, “Examining the influence of specificity ligands and ATP-competitive ligands on the overall effectiveness of bivalent kinase inhibitors” (Proteome Science, 2017).

Columns and labels:
Experiment in all cases: KAM-matrix competition in K562 lysate;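 for 0.001 uM KAM: median log10 fold change of treatment over DMSO control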;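 for 0.01 uM KAM: median log10 fold change of treatment over DMSO control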;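 for 0.1 uM KAM: median log10 fold change of treatment over DMSO control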;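 for 1 uM KAM: median log10 fold change of treatment over DMSO control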;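 for 10 uM KAM: median log10 fold change of treatment over DMSO control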
Type in all cases: binding
TP53RK = target: T1, TP53RK (Homo sapiens, UniProt Q96S44);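 for 0.001 uM KAM: median log10 fold change of treatment over DMSO control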;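 for 0.01 uM KAM: median log10 fold change of treatment over DMSO control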;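 for 0.1 uM KAM: median log10 fold change of treatment over DMSO control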;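 for 1 uM KAM: median log10 fold change of treatment over DMSO control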;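 for 10 uM KAM: median log10 fold change of treatment over DMSO control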
T1 construct: endogenous in cells; host or cells: K562
T1 sequence (Q96S44 1-253): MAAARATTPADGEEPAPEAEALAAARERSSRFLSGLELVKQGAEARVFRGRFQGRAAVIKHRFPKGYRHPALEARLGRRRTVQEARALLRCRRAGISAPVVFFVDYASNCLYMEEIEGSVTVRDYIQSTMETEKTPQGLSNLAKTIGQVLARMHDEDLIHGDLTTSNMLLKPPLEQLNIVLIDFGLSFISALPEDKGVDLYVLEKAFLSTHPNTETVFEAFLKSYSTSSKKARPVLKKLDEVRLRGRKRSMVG
Experimental: (§1) Supplement 12953_2017_125_MOESM1_ESM.zip/MS_Supp Info.xlsx, sheet "KAM" | column: 10 uM KAM; 1 uM KAM; 0.1 uM KAM; 0.01 uM KAM; 0.001 uM KAM; RB50

BUB1B = target: T2, BUB1B (Homo sapiens, UniProt O60566);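 for 0.001 uM KAM: median log10 fold change of treatment over DMSO control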;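 for 0.01 uM KAM: median log10 fold change of treatment over DMSO control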;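 for 0.1 uM KAM: median log10 fold change of treatment over DMSO control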;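 for 1 uM KAM: median log10 fold change of treatment over DMSO control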;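 for 10 uM KAM: median log10 fold change of treatment over DMSO control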
T2 construct: endogenous in cells; host or cells: K562
Experimental: as §1

PBK = target: T3, PBK (Homo sapiens, UniProt Q96KB5);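 for 0.001 uM KAM: median log10 fold change of treatment over DMSO control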;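 for 0.01 uM KAM: median log10 fold change of treatment over DMSO control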;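 for 0.1 uM KAM: median log10 fold change of treatment over DMSO control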;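 for 1 uM KAM: median log10 fold change of treatment over DMSO control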;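 for 10 uM KAM: median log10 fold change of treatment over DMSO control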
T3 construct: endogenous in cells; host or cells: K562
T3 sequence (Q96KB5 1-322): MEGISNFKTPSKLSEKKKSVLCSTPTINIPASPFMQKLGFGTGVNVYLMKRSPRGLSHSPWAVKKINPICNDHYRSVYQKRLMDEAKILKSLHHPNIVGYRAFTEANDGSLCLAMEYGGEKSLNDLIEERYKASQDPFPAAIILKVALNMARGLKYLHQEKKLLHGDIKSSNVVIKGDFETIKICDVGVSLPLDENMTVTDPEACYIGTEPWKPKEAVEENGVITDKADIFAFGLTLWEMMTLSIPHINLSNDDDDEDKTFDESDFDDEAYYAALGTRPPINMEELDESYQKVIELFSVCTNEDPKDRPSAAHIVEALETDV
Experimental: as §1

CSK = target: T4, CSK (Homo sapiens, UniProt P41240);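 for 0.001 uM KAM: median log10 fold change of treatment over DMSO control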;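 for 0.01 uM KAM: median log10 fold change of treatment over DMSO control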;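 for 0.1 uM KAM: median log10 fold change of treatment over DMSO control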;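 for 1 uM KAM: median log10 fold change of treatment over DMSO control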;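 for 10 uM KAM: median log10 fold change of treatment over DMSO control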
T4 construct: endogenous in cells; host or cells: K562
Experimental: as §1

TAOK1 = target: T5, TAOK1 (Homo sapiens, UniProt Q7L7X3)
T5 construct: endogenous in cells; host or cells: K562 cell lysate
T5 sequence (Q7L7X3 1-1001): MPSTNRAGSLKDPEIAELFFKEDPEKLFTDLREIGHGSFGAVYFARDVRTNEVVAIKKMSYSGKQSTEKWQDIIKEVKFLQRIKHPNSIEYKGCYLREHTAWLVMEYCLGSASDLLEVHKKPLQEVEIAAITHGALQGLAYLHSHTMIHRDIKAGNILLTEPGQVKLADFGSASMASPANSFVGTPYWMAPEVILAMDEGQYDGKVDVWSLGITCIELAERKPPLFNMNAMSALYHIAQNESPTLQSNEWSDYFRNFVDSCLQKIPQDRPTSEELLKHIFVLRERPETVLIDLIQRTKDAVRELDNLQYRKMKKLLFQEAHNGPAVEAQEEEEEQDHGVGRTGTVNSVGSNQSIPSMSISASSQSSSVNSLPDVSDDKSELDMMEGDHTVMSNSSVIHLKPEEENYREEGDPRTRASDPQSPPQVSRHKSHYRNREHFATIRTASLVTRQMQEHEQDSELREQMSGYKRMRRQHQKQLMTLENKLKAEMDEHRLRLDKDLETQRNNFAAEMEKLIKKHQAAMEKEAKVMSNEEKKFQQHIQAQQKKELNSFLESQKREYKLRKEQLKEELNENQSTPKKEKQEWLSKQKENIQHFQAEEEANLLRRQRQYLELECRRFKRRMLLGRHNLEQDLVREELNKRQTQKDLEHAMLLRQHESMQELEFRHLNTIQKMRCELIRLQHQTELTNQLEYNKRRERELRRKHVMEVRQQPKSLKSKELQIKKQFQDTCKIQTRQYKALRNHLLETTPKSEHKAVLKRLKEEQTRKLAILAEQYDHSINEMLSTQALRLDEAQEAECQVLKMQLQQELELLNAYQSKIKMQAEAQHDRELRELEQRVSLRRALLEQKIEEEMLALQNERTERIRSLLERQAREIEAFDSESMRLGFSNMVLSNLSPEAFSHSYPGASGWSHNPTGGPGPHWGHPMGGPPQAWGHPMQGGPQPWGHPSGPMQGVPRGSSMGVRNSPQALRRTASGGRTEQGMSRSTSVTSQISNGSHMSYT
Experimental: as §1

HIPK1 = target: T6, HIPK1 (Homo sapiens, UniProt Q86Z02)
T6 construct: endogenous in cells; host or cells: K562
Experimental: as §1

[1] = KAM 0.001-10 uM, read-out: RB50 (the source's name)
[2] = read-out: RB50 (the source's name)

T6 sequence (Q86Z02 whole entry): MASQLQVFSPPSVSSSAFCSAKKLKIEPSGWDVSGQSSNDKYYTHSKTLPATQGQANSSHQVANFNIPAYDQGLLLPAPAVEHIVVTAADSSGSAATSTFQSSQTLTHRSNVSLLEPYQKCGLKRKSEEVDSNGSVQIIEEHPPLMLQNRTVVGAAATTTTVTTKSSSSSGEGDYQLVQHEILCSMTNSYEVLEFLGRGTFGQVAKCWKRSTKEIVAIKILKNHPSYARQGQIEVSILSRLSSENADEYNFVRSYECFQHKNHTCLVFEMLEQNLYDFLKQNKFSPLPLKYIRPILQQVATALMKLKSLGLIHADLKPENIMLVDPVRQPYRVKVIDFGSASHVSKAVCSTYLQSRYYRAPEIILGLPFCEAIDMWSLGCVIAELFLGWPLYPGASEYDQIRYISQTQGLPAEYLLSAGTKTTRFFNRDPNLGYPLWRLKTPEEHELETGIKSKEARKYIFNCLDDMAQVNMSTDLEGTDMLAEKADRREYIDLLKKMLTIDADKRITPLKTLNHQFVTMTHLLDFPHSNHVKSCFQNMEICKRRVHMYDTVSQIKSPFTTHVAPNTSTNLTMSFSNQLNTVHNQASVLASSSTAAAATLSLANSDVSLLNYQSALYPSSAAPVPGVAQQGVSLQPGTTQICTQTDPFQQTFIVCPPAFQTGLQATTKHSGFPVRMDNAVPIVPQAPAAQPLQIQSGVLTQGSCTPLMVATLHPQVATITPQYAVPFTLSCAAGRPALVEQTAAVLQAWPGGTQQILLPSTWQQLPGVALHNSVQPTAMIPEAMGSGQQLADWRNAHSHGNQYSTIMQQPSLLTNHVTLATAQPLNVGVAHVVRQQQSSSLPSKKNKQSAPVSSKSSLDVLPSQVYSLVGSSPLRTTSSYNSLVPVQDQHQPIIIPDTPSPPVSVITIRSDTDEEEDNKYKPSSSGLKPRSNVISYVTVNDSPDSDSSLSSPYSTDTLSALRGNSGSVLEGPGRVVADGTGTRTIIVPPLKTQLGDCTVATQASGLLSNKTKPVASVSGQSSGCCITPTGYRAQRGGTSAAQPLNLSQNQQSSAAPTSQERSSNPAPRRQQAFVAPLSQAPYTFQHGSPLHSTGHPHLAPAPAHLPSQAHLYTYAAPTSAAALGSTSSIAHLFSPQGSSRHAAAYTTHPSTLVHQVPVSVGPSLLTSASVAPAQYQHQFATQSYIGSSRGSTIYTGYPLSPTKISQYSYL
T4 sequence (P41240 whole entry): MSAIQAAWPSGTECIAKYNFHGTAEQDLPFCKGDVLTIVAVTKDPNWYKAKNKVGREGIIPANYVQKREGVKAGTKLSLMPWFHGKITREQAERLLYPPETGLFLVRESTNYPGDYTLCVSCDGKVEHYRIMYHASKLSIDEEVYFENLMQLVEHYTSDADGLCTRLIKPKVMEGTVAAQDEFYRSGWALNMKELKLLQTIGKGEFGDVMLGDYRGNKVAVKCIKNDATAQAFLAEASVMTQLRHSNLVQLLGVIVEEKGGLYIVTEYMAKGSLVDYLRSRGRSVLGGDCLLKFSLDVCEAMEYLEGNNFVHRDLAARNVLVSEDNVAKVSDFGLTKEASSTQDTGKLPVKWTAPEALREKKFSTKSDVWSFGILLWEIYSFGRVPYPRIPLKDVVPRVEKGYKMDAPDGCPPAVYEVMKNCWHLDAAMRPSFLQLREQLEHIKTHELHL
T2 sequence (O60566 whole entry): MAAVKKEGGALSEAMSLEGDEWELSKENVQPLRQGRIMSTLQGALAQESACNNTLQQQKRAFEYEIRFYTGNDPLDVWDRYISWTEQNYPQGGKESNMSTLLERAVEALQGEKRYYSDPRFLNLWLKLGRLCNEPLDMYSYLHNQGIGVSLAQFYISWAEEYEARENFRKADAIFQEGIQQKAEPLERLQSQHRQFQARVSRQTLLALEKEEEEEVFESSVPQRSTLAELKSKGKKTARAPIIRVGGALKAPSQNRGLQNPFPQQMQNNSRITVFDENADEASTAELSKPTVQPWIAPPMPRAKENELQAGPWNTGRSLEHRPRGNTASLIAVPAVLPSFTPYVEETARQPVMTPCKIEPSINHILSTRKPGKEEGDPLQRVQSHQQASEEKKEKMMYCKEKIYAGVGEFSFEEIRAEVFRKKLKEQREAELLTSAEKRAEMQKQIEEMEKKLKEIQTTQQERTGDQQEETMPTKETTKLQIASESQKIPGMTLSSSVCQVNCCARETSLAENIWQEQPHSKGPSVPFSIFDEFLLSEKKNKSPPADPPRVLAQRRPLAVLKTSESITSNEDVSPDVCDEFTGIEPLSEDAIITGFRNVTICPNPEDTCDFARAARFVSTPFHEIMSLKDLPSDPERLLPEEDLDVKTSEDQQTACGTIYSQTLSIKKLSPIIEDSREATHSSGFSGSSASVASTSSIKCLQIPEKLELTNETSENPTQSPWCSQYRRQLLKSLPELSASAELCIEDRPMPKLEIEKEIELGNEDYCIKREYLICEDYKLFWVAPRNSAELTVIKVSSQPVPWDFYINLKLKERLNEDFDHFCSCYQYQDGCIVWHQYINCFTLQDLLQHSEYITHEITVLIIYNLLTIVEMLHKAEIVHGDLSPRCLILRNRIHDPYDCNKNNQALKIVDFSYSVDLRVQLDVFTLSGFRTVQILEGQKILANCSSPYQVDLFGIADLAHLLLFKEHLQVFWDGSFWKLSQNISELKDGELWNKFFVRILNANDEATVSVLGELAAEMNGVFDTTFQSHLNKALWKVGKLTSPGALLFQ

Structure (SMILES): N#CCc1ccc(Nc2nc(NCCCN)cc(Nc3cc(C4CC4)[nH]n3)n2)cc1 [KAM]
- IC50 (TP53RK; [1]): > 10 µM
- 0.001 uM KAM (TP53RK; relative to 0 uM KAM = 0): 0.009964
- 0.01 uM KAM (TP53RK; relative to 0 uM KAM = 0): 0.004194
- 0.1 uM KAM (TP53RK; relative to 0 uM KAM = 0): 0.08221
- 1 uM KAM (TP53RK; relative to 0 uM KAM = 0): 0.04146
- 10 uM KAM (TP53RK; relative to 0 uM KAM = 0): -0.01189
- IC50 (BUB1B; [1]): > 10 µM
- 0.001 uM KAM (BUB1B; relative to 0 uM KAM = 0): -0.0187
- 0.01 uM KAM (BUB1B; relative to 0 uM KAM = 0): -0.008778
- 0.1 uM KAM (BUB1B; relative to 0 uM KAM = 0): -0.0591
- 1 uM KAM (BUB1B; relative to 0 uM KAM = 0): -0.007813
- 10 uM KAM (BUB1B; relative to 0 uM KAM = 0): -0.008689
- IC50 (PBK; [1]): > 10 µM
- 0.001 uM KAM (PBK; relative to 0 uM KAM = 0): 0.04398
- 0.01 uM KAM (PBK; relative to 0 uM KAM = 0): 0.009269
- 0.1 uM KAM (PBK; relative to 0 uM KAM = 0): 0.0383
- 1 uM KAM (PBK; relative to 0 uM KAM = 0): 0.01738
- 10 uM KAM (PBK; relative to 0 uM KAM = 0): 0.0482
- IC50 (CSK; [1]): > 10 µM
- 0.001 uM KAM (CSK; relative to 0 uM KAM = 0): 0.01067
- 0.01 uM KAM (CSK; relative to 0 uM KAM = 0): -0.02135
- 0.1 uM KAM (CSK; relative to 0 uM KAM = 0): 0.028
- 1 uM KAM (CSK; relative to 0 uM KAM = 0): -0.04258
- 10 uM KAM (CSK; relative to 0 uM KAM = 0): -0.03639
- median Log10 fold change (TAOK1; 0.001 uM KAM): 0.00525
- median Log10 fold change (TAOK1; 0.01 uM KAM): 0.00511
- median Log10 fold change (TAOK1; 0.1 uM KAM): -0.09468
- median Log10 fold change (TAOK1; 1 uM KAM): -0.2373
- median Log10 fold change (TAOK1; 10 uM KAM): -0.3152
- IC50 (TAOK1; [2]): 4.15 µM
- median Log10 fold change (HIPK1; 0.001 uM KAM): 0.007007
- median Log10 fold change (HIPK1; 0.01 uM KAM): -0.007344
- median Log10 fold change (HIPK1; 0.1 uM KAM): -0.151
- median Log10 fold change (HIPK1; 1 uM KAM): -0.3582
- median Log10 fold change (HIPK1; 10 uM KAM): -0.4749
- IC50 (HIPK1; [2]): 0.77 µM
